Here are results for 2 substances from patent US20090203594A1, “Anticancer peptide” (priority 2004, published 2009).

Assay [1] deals with MCF-7 breast cancer cells. The experiment in a line: Killing of MCF-7 breast cancer cells (qualitative). It is filed as cell-based, human.
The test system of a further assay is CEM cell clone C1-15. Put plainly: Exogenous peptide on CEM clone C1-15. Type of assay: cell-based, human. As to conditions: CEM clone C1-15, peptide administered exogenously. How it is done: (§1) As shown below, pDBD*R9 was administered to CEM cell clones ICR-27, C7-14, and C1-15. Two of these clones are resistant to the synthetic glucocorticoid dexamethasone, commonly used in the treatment of acute lymphoblastic leukemia.

The subject of the next assay is SWB-39 glioma. The experiment in a line: Killing of SWB-39 glioma cells. Type of assay: cell-based.
Assay [2] relates to MCF-7 breast cancer cells. Put plainly: WST-1 dye reduction viability assay, MCF-7. It is filed as cell-based, human. How it is done: (§2) A more quantitative assay was carried out using as an endpoint the reduction of a water-soluble tetrazolium dye (WST-1). This method has been employed to follow the effects of various chemotherapeutic agents on malignant cells (Hwang, W. S., Chen, L. M., Huang, S. H., Wang, C. C., Tseng, M. T. Prediction of chemotherapy response in human leukemia using in vitro chemosensitivity test. Leuk Res. 17:685-688, 1993; Pieters, R., Loonen, A. H., Huismans, D. R., Broekema, G. J., Dirven, M. W., Heyenbrok, M. W., Hahlen, K., Veerman, A. J. In vitro drug sensitivity of cells with children with leukemia using the MTT assay with approved culture conditions. Blood 76:2327-2336, 1990).
(§3) Viable cells can reduce the dye; dead cells cannot. The effects on pDBD*4R9 on MCF-7 breast cancer cells and non-malignant NIH-3T3 cells were compared (Table 2).
(§4) 20,000 cells were plated in triplicate in a 96 well plate. 24 hr later, cells were washed once and growth medium was replaced with serum free medium containing pDBD*4R9 (termed ‘Frag49’ in the table) or no peptide (Control) and placed in a tissue culture incubator at 37 deg. After 1 hr, serum-containing medium was added to each well and the plates were reincubated for 5 hr. 20 μl of WST-1 dye was then added to each well, and 4 hr later, Absorbance at 450-595 nm was determined spectrophotometrically. A chemical blank (avg. of 4 wells, medium plus dye only) was subtracted from each raw score.

The test system of assay [3] is human leukemic CEM C714 cells. Put plainly: Exogenous peptide on CEM C7-14 leukemic cells (WST viability). Type of assay: cell-based. How it is done: as §1
(§5) For each cell line, the protocol was the same for determining the effects of pDBD*4R9.
(§6) Cells were plated in equal numbers and washed free of growth medium.
(§7) The peptide pDBD*4R9 was then added to the cells for one hour, after which they were returned to growth medium.
(§8) At a suitable interval thereafter, they were assayed for viability by use of the WST assay (described above), which measures the ability of viable cells' mitochondria to metabolize and therefore change the color of a water soluble tetrazolium dye (WST). By measuring the absorbance of the color, one has a quantitative correlate of viability: More absorbance=more viable cells.

In assay [4] the test system is colon cancer line, CaCo-2. Put plainly: WST viability assay, colon cancer line. Type of assay: cell-based. Here is the method: as §5, §6, §7, §8
The subject of the next assay is ICR 27 leukemic cells. The experiment in a line: Reduction in ICR 27 leukemic cells by exogenous application of peptide (cell count). Type of assay: cell-based, human. Conditions: for Cells/ml after 23 h: 1 h in serum-free medium then growth medium, average of duplicate counts; for cell killing: ICR-27, peptide added exogenously without electroporation. Here is the method:
At the maximum dose tested in this experiment, pDBD*4R9 caused over a 2-log loss of cells.
At t=0, growing cells were removed from medium, washed, and plated at 4.0×10^6 cells/ml in serum-free medium to which the peptide was added from a stock solution. Control peptide was GnRHR7 (Gonadotropin Releasing Hormone with a 7-arginine polymer added covalently). One hour later cells were diluted into growth medium. After 23 h, each culture was counted in duplicate. Average values are shown. Similar dose-related responses to pDBD*4R9 have been seen in 3 experiments.

Assay [5] relates to basal cell carcinoma cells. The experiment in a line: Killing of basal cell carcinoma cells. It is filed as cell-based. Conditions: line of basal cell carcinoma cells.
Assay [6] concerns breast cancer GT-MCF-7 cells. Put plainly: AlarmarBlue viability assay on GT-MCF-7 cells. Type of assay: cell-based, human. As to conditions: GT-MCF-7, four-hour treatment. How it is done: as §5
Cells were plated in equal numbers and washed free of growth medium. […]
In the experiment on MCF-7 cells, an equivalent assay (AlarmarBlue) was used.

The test system of assay [7] is non-malignant NIH-3T3 cells. The experiment in a line: WST-1 dye reduction viability assay, NIH-3T3. Type of assay: cell-based. Here is the method: as §2, §3, §4
In assay [8] the test system is cell clones from the CEM leukemic cell system. The experiment in a line: pDBD*4 in glucocorticoid-susceptible and -resistant clones of the CEM leukemic cell system. Type of assay: cell-based, human. How it is done:
pDBD*4 was tested in cell clones from the CEM leukemic cell system. Some of those clones are susceptible to apoptotic cell death evoked by steroids of the glucocorticoid class; others are not. Both types of clones were killed by electroporation of pDBD*4 into the cells, whereas exogenous application of pDBD*4 produced no effect.

The test system of assay [9] is ICR-27 lymphoblastic clonal cell line. The experiment in a line: Electroporation of pDBD*4 into ICR-27 cells, cell death. Conditions: transfected by electroporation. Type of assay: cell-based, human. How it is done: FIG. 1 (A and B). Human leukemic ICR-27-4 cells were electroporated (500 μF, 300V) with 2 μg pDBD*4 peptide or without peptide (Control). Equal concentrations of cells were then plated and quantified for viable cell numbers over time.
(§9) Derivation of ICR-27 cells is found in Molecular & Cellular Biology (1981) 1:512-21 and of CEM1-15 and CEM7-14 in Genomics (2003) 81:175-97.
Equal concentrations of cells were then plated.
In FIG. 1A, cell viability was evaluated after 4 hr using the WST-1 dye reduction assay (8,9). Quadruplicate wells of a 96 well plate each received 200 μl of cells plus 20 μl of WST-1 dye. The plate was then placed in a tissue culture incubator for 4 hours. Spectrophotometric analysis was carried out on a plate reader with Absorbance read at 450-595 nm. Absorbancies were corrected for the average of triplicate chemical blanks (200 μl growth medium plus 20 μl WST-1 dye). Data are presented as percent of control.
In FIG. 1B, cell concentrations were determined after 4 hr. and 24 hr. by hemocytometer counts of duplicate aliquots, with trypan blue dye added in the 24 hr samples to discriminate non-viable, but membrane-intact cells.

Assay [10] concerns CEM C7-14 lymphoblastic clonal cell line. The experiment in a line: Electroporation of pDBD*4 into CEM C7-14 cells, cell death. Conditions: transfected by electroporation. It is filed as cell-based, human.
Source text: as §9

Assay [11] deals with CEM 1-15 lymphoblastic clonal cell line. The experiment in a line: Electroporation of pDBD*4 into CEM 1-15 cells, cell death. Conditions: transfected by electroporation. Type of assay: cell-based, human.
Source text: as §9

Setting [12] is: MCF-7, 1 h peptide, 5 h reincubation, 4 h dye, blank subtracted.
Setting [13] is: NIH-3T3, 1 h peptide, 5 h reincubation, 4 h dye, blank subtracted.

Read-outs that look alike come from different tables or passages of the source. No end group written: not given here. Bounds are passed on as bounds.

Turning to “RRRRRRRRRYLCAGRNDCIIAIKFEEKTAQHAAIENVFRLE (cysteines drawn unpaired) [pDBD*4R9]”, the “killing activity / cell death” value is given as “caused death” in [1]; “Killing activity” in [1] (listed as pDBD*R9); “caused death” in the assay with SWB-39 glioma; “Killing activity” in the assay on SWB-39 glioma (listed as pDBD*R9); “caused death” in assay [5]; “Killing activity” in [5] (listed as pDBD*R9). Moreover, the cell killing entry with CEM cell clone C1-15 is “killed in a dose-dependent manner”; in [3] (CEM clone C7-14, peptide administered exogenously) it was “killed in a dose-dependent manner”; in the assay on ICR 27 leukemic cells it was “killed the cells in a dose dependent manner”; in the assay on ICR 27 leukemic cells (listed as pDBD*R9) it was “killed in a dose-dependent manner”. Besides, the “average reduction in ability to metabolize the tetrazolium dye” value in assay [2] (MCF-7, dose of Table 2) was “over 3 fold”. Further, the “WST-1 Absorbance, 450-595 nm, Well 1” value in [2] (setting [12]) was found to be 0.045; in assay [7] (setting [13]) it was 0.199. For the same substance, the “WST-1 Absorbance, 450-595 nm, Well 2” value in assay [2] (setting [12]) was 0.087; in [7] (setting [13]) it was 0.216. For the same substance, the “WST-1 Absorbance, 450-595 nm, Well 3” value is 0.289 in assay [2] (setting [12]) and 0.196 in assay [7] (setting [13]). Further, the “WST-1 Absorbance, 450-595 nm, Avg.” value in assay [2] (MCF-7, average of 3 wells) was 0.140; in [7] (NIH-3T3, average of 3 wells), 0.204. Besides, the “anticancer effect (FIG. 3)” value in assay [3] (CEM C714 cells) is reported as “significant anticancer effects”. Moreover, the Absorbance in assay [4] (Expt 1, 25 microM, duplicates, avg +/- range) is 0.08 +/− 0.01; in assay [4] (Expt 1, 50 microM, duplicates, avg +/- range), 0.16 +/− 0.005; in assay [4] (Expt 2, 100 microM, triplicates, avg +/- 1 SD), 0.19 +/− 0.05. Further, the estimated cell kill in assay [4] (colon cancer cells, single treatment, 25-100 microM) was 50-75%. Moreover, the “Cells/ml after 23 h” value is recorded as 1.8 × 10^5 Cells/ml in the assay on ICR 27 leukemic cells (5 μM peptide), 1.95 × 10^5 Cells/ml in the assay with ICR 27 leukemic cells (10 μM peptide) and 0.5 × 10^5 Cells/ml in the assay on ICR 27 leukemic cells (20 μM peptide). The “cell loss / growth inhibition with increasing concentrations” value with ICR 27 leukemic cells (ICR27-4, increasing concentrations) is listed as “caused cell loss in a dose-dependent manner”. For the same substance, the loss of cells in the assay on ICR 27 leukemic cells (ICR27-4, maximum dose tested) was greater than 2 log. Further, in assay [6], the “anticancer effect (FIG. 2)” value is given as “significant anticancer effects”. In addition, the “metabolism of the tetrazolium dye” value in assay [7] (NIH-3T3, dose of Table 2) is recorded as “not significantly altered”.

For the substance “tyr-leu-cys-ala-gly-arg-asn-asp-cys-ile-ile-ala-ile-lys-phe-glu-glu-lys-thr-ala-gln-his-ala-ala-ile-glu-asn-val-phe-arg-leu-glu (YLCAGRNDCIIAIKFEEKTAQHAAIENVFRLE) [pDBD*4, 32-amino acid synthetic polypeptide, portion of the 89 aa peptide encoded by gene 398-465*]”, the cell killing result in assay [8] (electroporation into glucocorticoid-susceptible and non-susceptible CEM clones) is “killed”; in the assay on ICR 27 leukemic cells, “did not”. Also, the effect on cells entry in assay [8] (exogenous application, CEM clones) is “no effect”. For the same substance, the cell death result in [9], in [10] and in assay [11] was “causes cell death” each time.
